Test results as given in publication PMC6039436, “Radiobrominated benzimidazole-quinoline derivatives as Platelet-derived growth factor receptor beta (PDGFRβ) imaging probes” (Scientific Reports, 2018).
Marks after values point to notes of the source that are not given here. Each block holds one compound with its values, some of them ahead of it.

Key:
RXF393 xenograft = system: RXF393 xenograft; set-up: method as in PMID 23522977; details: RXF393 xenograft mice; cited from earlier work
PDGFRβ (BxPC3-luc cells) = molecular target: T1, PDGFRβ (BxPC3-luc cells) (Homo sapiens, UniProt P09619); assay: Competitive binding assay of [^125I]4 with BxPC3-luc cells; details: displacement of [^125I]4, BxPC3-luc cells, 37 °C, 4 h
T1 construct: host or cells: BxPC3-luc cells
T1 sequence (P09619 33-1106): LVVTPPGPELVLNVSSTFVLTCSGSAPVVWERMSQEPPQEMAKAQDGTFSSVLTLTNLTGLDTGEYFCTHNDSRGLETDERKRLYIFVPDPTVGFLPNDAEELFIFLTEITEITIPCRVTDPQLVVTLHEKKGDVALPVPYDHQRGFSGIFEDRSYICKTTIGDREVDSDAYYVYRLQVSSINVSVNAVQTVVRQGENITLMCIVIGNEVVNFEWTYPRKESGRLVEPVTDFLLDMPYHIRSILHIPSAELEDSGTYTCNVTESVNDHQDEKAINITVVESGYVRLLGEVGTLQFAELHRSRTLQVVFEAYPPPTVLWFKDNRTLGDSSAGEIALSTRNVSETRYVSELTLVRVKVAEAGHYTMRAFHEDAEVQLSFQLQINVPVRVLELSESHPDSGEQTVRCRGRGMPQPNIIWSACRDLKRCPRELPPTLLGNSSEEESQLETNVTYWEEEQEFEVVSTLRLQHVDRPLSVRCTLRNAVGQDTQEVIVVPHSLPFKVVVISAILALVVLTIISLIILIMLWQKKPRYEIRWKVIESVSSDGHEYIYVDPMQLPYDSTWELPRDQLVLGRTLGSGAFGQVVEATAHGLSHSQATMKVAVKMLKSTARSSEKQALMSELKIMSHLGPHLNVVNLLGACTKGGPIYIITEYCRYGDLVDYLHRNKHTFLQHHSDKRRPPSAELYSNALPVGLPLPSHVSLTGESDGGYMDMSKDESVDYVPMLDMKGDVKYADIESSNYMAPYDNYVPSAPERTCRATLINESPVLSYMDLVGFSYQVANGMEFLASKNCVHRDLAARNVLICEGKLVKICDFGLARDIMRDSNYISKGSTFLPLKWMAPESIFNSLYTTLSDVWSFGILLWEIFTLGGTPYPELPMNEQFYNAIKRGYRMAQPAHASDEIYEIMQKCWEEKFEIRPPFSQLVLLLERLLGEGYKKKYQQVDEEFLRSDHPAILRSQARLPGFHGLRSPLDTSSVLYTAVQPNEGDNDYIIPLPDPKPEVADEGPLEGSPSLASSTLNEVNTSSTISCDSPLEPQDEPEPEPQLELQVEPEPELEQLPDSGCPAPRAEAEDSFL
Description: We investigated the competitive binding of [^125I]4 to BxPC3-luc cells with PDGFRβ ligand, 1, 2, and 3.
BxPC3-luc cells in medium containing 10% FBS and antibiotics were seeded on 24-well plates (50,000 cells/wells) and incubated for 24 h in a 5% CO2 incubator at 37 °C. Nine concentrations of displacing nonradiolabeled ligands (1, 2 and 3) (ranging from 1 pM to 1 mM) and [^125I]4 in medium without FBS were incubated at 37 °C for 4 h. After washing the cells twice using 250 µL of ice-cold PBS, the unbound radioligand was removed. The cells were dissolved using 250 µL of 1 M NaOH and wells were washed with 250 µL of 1 M NaOH. The bound radioactivity was determined using a gamma counter.
All data were statisticaly analyzed using GraphPad 5.0 software (La Jolla, CA, USA) and expressed as mean ± standard deviation (SD). Significance for in vitro blocking experiments was determined by a one-way analysis of variance (ANOVA) followed by Dunnett’s post hoc test compared to the control group. Significance in cell viability assays was determined by ANOVA followed by Tukey’s post hoc test. IC50 values for the binding assay were calculated by nonlinear regression. Significant differences in biodistribution experiments between [^77Br]2 and [^77Br]3 groups were determined using unpaired Student’s t-test. Significance for in vivo blocking studies between control and blocking groups were determined by unpaired Student’s t-test. Results were considered statistically significant at p < 0.05.

[1] = system: PDGFRβ overexpressed TR-PCT1 cells; assay: Cell viability assay (WST-8 / Cell Counting Kit-8); format: cell-based, rat; details: 1–1000 nM, 72 h, 20 ng/mL PDGF-BB, compared with 1
Description: The binding affinity of 2 and 3 to the ATP-binding site in PDGFRβ was evaluated using PDGFRβ overexpressed TR-PCT1 cells. Cells were treated with 1–1000 nM of synthesized ligands, 1, 2, or 3.
Figure 4 Cell viability after exposure 1, 2, and 3 by WST-8 assay. Data were presented as mean ± SD for three samples. Significance was determined using a one-way ANOVA followed by Tukey’s post hoc test (^*p < 0.01, ^**p < 0.001).
The cell viability assay of brominated compounds, 2 and 3, was evaluated as described previously[24],[27]. Namely, TR-PCT1 cells were seeded on 96-well plates (5 × 10^3 cells/well) and cultured at 33 °C in DMEM medium with 20 ng/mL PDGF-BB and 2% FBS in a 5% CO2 incubator. Cells were treated with each compound for 72 h and cell viability was determined by the Cell Counting Kit-8.

[2] = set-up: method as in PMID 28838832; details: radioiodinated compounds; cited from earlier work
[3] = system: BxPC3-luc cells (PDGFRβ-positive); assay: Cellular uptake study (double tracer method); format: cell-based; details: BxPC3-luc (PDGFRβ-positive) vs MCF7 (PDGFRβ-negative), 0.5–4 h
Description: Figure 5 Cellular uptake study. Time-dependent accumulation of (a) [^77Br]2 and [^125I]4 (b) [^77Br]3 and [^125I]5 in BxPC3-luc and MCF7 cells. Data were presented as mean ± SD for three samples.
Radiotracer uptake experiments in tumor cells were performed using BxPC3-luc and MCF7 cell lines. To compare the uptake between radiobrominated compounds, [^77Br]2 and [^77Br]3, and the corresponding radioiodinated compounds, [^125I]4 and [^125I]5, the cellular uptake experiments were performed by a double tracer method as described previously with a slight modification[30],[31],[35]. Briefly, the cells were seeded in RPMI 1640 medium containing 10% FBS and antibiotics on six-well plates (2 × 10^5 cells/well) for 24 h in a 5% CO2 incubator at 37 °C. After removal of medium, cells were incubated in medium without FBS containing [^77Br]2 (3.7 kBq/well) and [^125I]4 (3.7 kBq/well) or [^77Br]3 (3.7 kBq/well) and [^125I]5 (3.7 kBq/well) and tween-80 (0.1%) for 0.5, 1, 2 and 4 h. Radioiodinated compounds were prepared as described previously][24]. Cells were washed with ice-cold 1 mL of PBS and dissolved using 0.5 mL of 1 M NaOH and wells were washed with 1 M NaOH aqueous solution (0.5 mL). The radioactivity of pooled basic fractions was counted by a gamma counter. A range between 16 and 71 keV was used for measuring ^125I and between 95 and 700 for ^77Br. When radioactivity of ^77Br was counted, the crossover of ^125I activity into the ^77Br channel was negligible. More than one month after the experiment, the radioactivity of ^125I was determined because at that time ^77Br has been decayed and its radioactivity was negligible. The protein in the cell was quantified by a BCA Protein Assay Kit. All data were expressed as %dose/µg protein.

[4] = Biodistribution in ddY mice; format: in vivo; details: i.v. co-injection
Description: In this study, to minimize both the number of mice consumed in the experiment and the potential for experimental errors, we co-injected radiobrominated and radioiodinated compounds into mice[30],[31]. High radioactivity in the liver, small intestine, and large intestine was observed.
(§1) Mice were intravenously injected via the tail with 100 µL of saline solution of [^77Br]2 and [^125I]4 or [^77Br]3 and [^125I]5 (74 kBq, respectively), containing 10% ethanol and 1% tween-80. The ddY mice were sacrificed at 10 min, 1, 4, and 24 h postinjection. Meanwhile, tumor-bearing mice were sacrificed at 1 h postinjection.
(§2) Tissues in mice were resected and weighed. The radioactivity of the tissues was counted by a gamma counter and counts were corrected for background radiation. The data were expressed as percent injection dose per gram tissue (%ID/g).

BxPC3-luc tumor = assay: Biodistribution in BxPC3-luc tumor-bearing mice; format: in vivo, BALB/c nu/nu mice
Description: We investigated the biodistribution of the radiotracers in BxPC3-luc tumor-bearing mice by co-injecting [^77Br]2 with [^125I]4 (Table 3), and [^77Br]3 with [^125I]5 (Table 4).
Animal experiments were conducted in strict accordance with the Guidelines for the Care and Use of Laboratory Animals of Kanazawa University. The animal experimental protocols used were approved by the Committee on Animal Experimentation of Kanazawa University (Permit Number: AP-163766). The animals were housed with free access to food and water at approximately 23 °C with a 12 h light/dark schedule. ddY mice (six-week-old, male, 27–30 g) and BALB/c nu/nu mice (four-week-old, female, 12–17 g) were purchased from Japan SLC Inc. (Hamamatsu, Japan). For preparing the tumor-bearing mice, BxPC3-luc cells (5 × 10^6 cells) were subcutaneously injected into the left shoulder of BALB/c nu/nu mice. The tumor reached palpable size after two weeks of the inoculation.
as §1, §2

Compound: CNC(=O)c1cc(Oc2ccc(NC(=O)Nc3ccc(Cl)c(C(F)(F)F)c3)cc2)ccn1 [^11C-labeled sorafenib, sorafenib]
Tumor uptake (RXF393 xenograft): about 2.52 ± 0.33 %ID/g

IC50 (PDGFRβ (BxPC3-luc cells)): 56 ± 13 nM
Compound: COCCOc1ccc2c(c1)ncn2-c1ccc2c(Br)ccc(N3CCC(N)CC3)c2n1 [Compound 2, 1-{5-bromo-2-[5-(2-methoxyethoxy)-1H-benzo[d]imidazol-1-yl]quinolin-8-yl}piperidin-4-amine]
Cell viability of TR-PCT1 cells [1]: more effective in decreasing the viability of TR-PCT1 cells than 1

Radioactivity in Blood ([4]; 10 min): 1.15 (0.08)^* %injected dose/gram tissue | Radioactivity in Bone ([4]; 10 min): 1.53 (0.14) %injected dose/gram tissue | Radioactivity in Heart ([4]; 10 min): 4.27 (0.27) %injected dose/gram tissue | Radioactivity in Kidney ([4]; 10 min): 14.44 (1.31) %injected dose/gram tissue | Radioactivity in Large intestine ([4]; 10 min): 0.80 (0.07)^* %injected dose/gram tissue | Radioactivity in Liver ([4]; 10 min): 11.59 (0.69) %injected dose/gram tissue | Radioactivity in Lung ([4]; 10 min): 9.64 (0.66)^* %injected dose/gram tissue | Radioactivity in Muscle ([4]; 10 min): 1.92 (0.18) %injected dose/gram tissue | Radioactivity in Pancreas ([4]; 10 min): 3.52 (0.33)^* %injected dose/gram tissue | Radioactivity in Small intestine ([4]; 10 min): 9.32 (2.30) %injected dose/gram tissue | Radioactivity in Spleen ([4]; 10 min): 5.08 (0.56) %injected dose/gram tissue | Radioactivity in Stomach ([4]; 10 min): 1.66 (0.11) %injected dose /organ | Radioactivity in Blood ([4]; 1 h): 0.32 (0.09) %injected dose/gram tissue | Radioactivity in Bone ([4]; 1 h): 1.22 (0.29) %injected dose/gram tissue | Radioactivity in Brain ([4]; 1 h): 0.15 (0.04) %injected dose/gram tissue | Radioactivity in Heart ([4]; 1 h): 1.23 (0.49) %injected dose/gram tissue | Radioactivity in Kidney ([4]; 1 h): 8.18 (2.71) %injected dose/gram tissue | Radioactivity in Large intestine ([4]; 1 h): 2.16 (0.54) %injected dose/gram tissue | Radioactivity in Liver ([4]; 1 h): 3.72 (1.18) %injected dose/gram tissue | Radioactivity in Lung ([4]; 1 h): 3.88 (0.72) %injected dose/gram tissue | Radioactivity in Muscle ([4]; 1 h): 0.78 (0.11) %injected dose/gram tissue | Radioactivity in Pancreas ([4]; 1 h): 2.49 (0.63) %injected dose/gram tissue | Radioactivity in Small intestine ([4]; 1 h): 25.44 (6.86) %injected dose/gram tissue | Radioactivity in Spleen ([4]; 1 h): 1.67 (0.41) %injected dose/gram tissue | Radioactivity in Stomach ([4]; 1 h): 1.76 (0.58) %injected dose /organ | Radioactivity in Blood ([4]; 4 h): 0.19 (0.05) %injected dose/gram tissue | Radioactivity in Bone ([4]; 4 h): 0.32 (0.08) %injected dose/gram tissue | Radioactivity in Heart ([4]; 4 h): 0.31 (0.05)^* %injected dose/gram tissue | Radioactivity in Kidney ([4]; 4 h): 4.28 (0.68) %injected dose/gram tissue | Radioactivity in Large intestine ([4]; 4 h): 51.43 (8.57) %injected dose/gram tissue | Radioactivity in Liver ([4]; 4 h): 3.45 (1.02) %injected dose/gram tissue | Radioactivity in Lung ([4]; 4 h): 2.18 (0.55) %injected dose/gram tissue | Radioactivity in Pancreas ([4]; 4 h): 1.27 (0.11)^* %injected dose/gram tissue | Radioactivity in Small intestine ([4]; 4 h): 4.98 (0.89) %injected dose/gram tissue | Radioactivity in Spleen ([4]; 4 h): 0.43 (0.11) %injected dose/gram tissue | Radioactivity in Stomach ([4]; 4 h): 0.85 (0.21) %injected dose /organ | Radioactivity in Kidney ([4]; 24 h): 0.13 (0.03) %injected dose/gram tissue | Radioactivity in Large intestine ([4]; 24 h): 0.14 (0.02) %injected dose/gram tissue | Radioactivity in Liver ([4]; 24 h): 0.29 (0.08) %injected dose/gram tissue | Radioactivity in Lung ([4]; 24 h): 0.15 (0.08)^* %injected dose/gram tissue | Radioactivity in Pancreas ([4]; 24 h): 0.07 (0.02) %injected dose/gram tissue | Radioactivity in Spleen ([4]; 24 h): 0.11 (0.09)^* %injected dose/gram tissue | Radioactivity in Stomach ([4]; 24 h): 0.05 (0.00)^** %injected dose /organ | Tumor-to-blood ratio of radioactivity (BxPC3-luc tumor; 1 h postinjection): 1.9 | Radioactivity in Stomach (BxPC3-luc tumor; i.v. co-injection, 1 h): 0.97 (0.19) %injected dose /organ
Compound: COCCOc1ccc2c(c1)ncn2-c1ccc2c([125I])ccc(N3CCC(N)CC3)c2n1 [[^125I]4, [^125I]1-{5-iodo-2-[5-(2-methoxyethoxy)-1H-benzo[d]imidazol-1-yl]quinolin-8-yl}piperidin-4-amine, reference compound]
n-octanol/phosphate buffer partition coefficient (log P) [2]: 2.71 ± 0.03 | Cellular uptake in BxPC3-luc cells [3]: higher than that in MCF7 cells | Radioactivity in Brain ([4]; 10 min): 0.07 (0.00)^** %injected dose/gram tissue | Radioactivity in Brain ([4]; 4 h): 0.03 (0.00)^** %injected dose/gram tissue | Radioactivity in Muscle ([4]; 4 h): 0.23 (0.06)^** %injected dose/gram tissue | Radioactivity in Blood ([4]; 24 h): 0.03 (0.00)^** %injected dose/gram tissue | Radioactivity in Bone ([4]; 24 h): 0.15 (0.05)^** %injected dose/gram tissue | Radioactivity in Brain ([4]; 24 h): 0.02 (0.00)^** %injected dose/gram tissue | Radioactivity in Heart ([4]; 24 h): 0.10 (0.09)^** %injected dose/gram tissue | Radioactivity in Muscle ([4]; 24 h): 0.04 (0.01)^** %injected dose/gram tissue | Radioactivity in Small intestine ([4]; 24 h): 0.04 (0.00)^** %injected dose/gram tissue | Radioactivity in Blood (BxPC3-luc tumor; i.v. co-injection, 1 h): 0.63 (0.05) %injected dose/gram of tissue | Radioactivity in Bone (BxPC3-luc tumor; i.v. co-injection, 1 h): 0.83 (0.10)^* %injected dose/gram of tissue | Radioactivity in Brain (BxPC3-luc tumor; i.v. co-injection, 1 h): 0.07 (0.00) %injected dose/gram of tissue | Radioactivity in BxPC3-luc tumor (BxPC3-luc tumor; i.v. co-injection, 1 h): 1.19 (0.06)^* %injected dose/gram of tissue | Radioactivity in Heart (BxPC3-luc tumor; i.v. co-injection, 1 h): 1.51 (0.40) %injected dose/gram of tissue | Radioactivity in Kidney (BxPC3-luc tumor; i.v. co-injection, 1 h): 15.56 (3.61) %injected dose/gram of tissue | Radioactivity in Large intestine (BxPC3-luc tumor; i.v. co-injection, 1 h): 2.46 (0.35) %injected dose/gram of tissue | Radioactivity in Liver (BxPC3-luc tumor; i.v. co-injection, 1 h): 11.02 (0.73) %injected dose/gram of tissue | Radioactivity in Lung (BxPC3-luc tumor; i.v. co-injection, 1 h): 9.14 (2.14) %injected dose/gram of tissue | Radioactivity in Muscle (BxPC3-luc tumor; i.v. co-injection, 1 h): 0.79 (0.10) %injected dose/gram of tissue | Radioactivity in Pancreas (BxPC3-luc tumor; i.v. co-injection, 1 h): 5.48 (0.93) %injected dose/gram of tissue | Radioactivity in Small intestine (BxPC3-luc tumor; i.v. co-injection, 1 h): 47.01 (5.56) %injected dose/gram of tissue | Radioactivity in Spleen (BxPC3-luc tumor; i.v. co-injection, 1 h): 2.76 (0.73) %injected dose/gram of tissue
